Earlier results, collected in patent publication US8173361B2, “Method of determining metabolism of a test agent” (The General Hospital Corporation, priority 2003, dated 2012).

Details: treatment of chronic hepatitis B; clinical tests suspended

O=c1[nH]c(=O)n([C@@H]2O[C@H](CO)[C@@H](O)[C@@H]2F)cc1I [fialuridine]
drug-related toxicity in clinical tests: drug-related liver failure leading to death in some patients
